In patent US20240316215A1, “CONTROLLED DRUG RELEASE MATERIAL” (ADURO MATERIAL AB, priority 2021, published 2024):

Columns and labels:
[1] = test system: MCF-7 human breast cancer cells; assay: cells
Text: Cell viability studies are typically conducted on cells that are actively dividing, in the linear range of logarithmic division. However, tumors are typically dense, highly populated 3-dimensional cultures.

[2] = test system: breast cancer cell lines; conditions: read-out: EC50 previously reported; cited from earlier work

EC50 ([1]; MCF7, MCF-7 cells cultured at 1×10^4/well): 200 µM
EC50 ([1]; MCF7, MCF-7 cells cultured at 2×10^4/well): 400 µM
EC50 ([1]; MCF7, MCF-7 cells cultured at 4×10^4/well): 800 µM
EC50 ([1]; MCF7, lowest cell concentration, 1×10^4 cells/well): 200 µM
Structure (SMILES): NC(=O)NO [hydroxyurea]
EC50 [2]: ~200 µM
